Assay results reported in ChEMBL document CHEMBL4507269, “Data for DCP probe BAY-386” (2021).

Key:
[1] = target: Cyclin-dependent kinase 15 (Homo sapiens) (UniProt Q96Q40); details: Compound concentration 1000.0 nM
[2] = target: Cyclin-dependent kinase-like 1 (Homo sapiens) (UniProt Q00532); details: Compound concentration 1000.0 nM
[3] = target: Mu-type opioid receptor (Homo sapiens) (UniProt P35372); details: Compound concentration 10.0 uM
[4] = target: Serine/threonine-protein kinase PRP4 homolog (Homo sapiens) (UniProt Q13523); details: Compound concentration 1000.0 nM
[5] = target: Serine/threonine-protein kinase MARK1 (Homo sapiens) (UniProt Q9P0L2); details: Compound concentration 1000.0 nM
[6] = tested on: Tyrosine-protein kinase ABL1 (Homo sapiens), P00519 [F317L]; details: Compound concentration 1000.0 nM
[7] = target: 5-hydroxytryptamine receptor 2C (Homo sapiens) (UniProt P28335); details: Compound concentration 10.0 uM
[8] = target: Serine/threonine-protein kinase Sgk3 (Homo sapiens) (UniProt Q96BR1); details: Compound concentration 1000.0 nM
[9] = target: Death-associated protein kinase 3 (Homo sapiens) (UniProt O43293); details: Compound concentration 1000.0 nM
[10] = target: Muscle, skeletal receptor tyrosine-protein kinase (Homo sapiens) (UniProt O15146); details: Compound concentration 1000.0 nM
[11] = target: Alpha-1B adrenergic receptor (Homo sapiens) (UniProt P35368); details: Compound concentration 10.0 uM
[12] = tested on: Epidermal growth factor receptor (Homo sapiens), P00533 [L861Q]; details: Compound concentration 1000.0 nM
[13] = target: Receptor-type tyrosine-protein kinase FLT3 (Homo sapiens) (UniProt P36888); details: Compound concentration 1000.0 nM
[14] = target: Dual specificity mitogen-activated protein kinase kinase 3 (Homo sapiens) (UniProt P46734); details: Compound concentration 1000.0 nM
[15] = target: Activin receptor type-1 (Homo sapiens) (UniProt Q04771); details: Compound concentration 1000.0 nM
[16] = target: 5-hydroxytryptamine receptor 1D (Homo sapiens) (UniProt P28221); details: Compound concentration 10.0 uM
[17] = target: Myosin light chain kinase family member 4 (Homo sapiens) (UniProt Q86YV6); details: Compound concentration 1000.0 nM
[18] = target: Serine/threonine-protein kinase D1 (Homo sapiens) (UniProt Q15139); details: Compound concentration 1000.0 nM
[19] = target: Serine/threonine-protein kinase PLK1 (Homo sapiens) (UniProt P53350); details: Compound concentration 1000.0 nM
[20] = target: Dual specificity mitogen-activated protein kinase kinase 6 (Homo sapiens) (UniProt P52564); details: Compound concentration 1000.0 nM
[21] = target: Macrophage colony-stimulating factor 1 receptor (Homo sapiens) (UniProt P07333); details: Compound concentration 1000.0 nM
[22] = target: Mitogen-activated protein kinase kinase kinase 7 (Homo sapiens) (UniProt O43318); details: Compound concentration 1000.0 nM
[23] = target: Ribosomal protein S6 kinase alpha-5 (Homo sapiens) (UniProt O75582); details: Compound concentration 1000.0 nM
[24] = target: Activin receptor type-2B (Homo sapiens) (UniProt Q13705); details: Compound concentration 1000.0 nM
[25] = target: Platelet-derived growth factor receptor beta (Homo sapiens) (UniProt P09619); details: Compound concentration 1000.0 nM
[26] = target: Activin receptor type-2A (Homo sapiens) (UniProt P27037); details: Compound concentration 1000.0 nM
[27] = target: Tyrosine-protein kinase JAK2 (Homo sapiens) (UniProt O60674); details: Compound concentration 1000.0 nM
[28] = target: Cyclin-dependent kinase 5 (Homo sapiens) (UniProt Q00535); details: Compound concentration 1000.0 nM
[29] = target: Cyclin-dependent kinase 14 (Homo sapiens) (UniProt O94921); details: Compound concentration 1000.0 nM
[30] = target: STE20-like serine/threonine-protein kinase (Homo sapiens) (UniProt Q9H2G2); details: Compound concentration 1000.0 nM
[31] = target: Serine/threonine-protein kinase Nek5 (Homo sapiens) (UniProt Q6P3R8); details: Compound concentration 1000.0 nM
[32] = target: Serine/threonine-protein kinase WNK3 (Homo sapiens) (UniProt Q9BYP7); details: Compound concentration 1000.0 nM
[33] = target: Serine/threonine-protein kinase VRK2 (Homo sapiens) (UniProt Q86Y07); details: Compound concentration 1000.0 nM
[34] = target: Activin receptor type-1-like (Homo sapiens) (UniProt P37023); details: Compound concentration 1000.0 nM
[35] = target: Homeodomain-interacting protein kinase 4 (Homo sapiens) (UniProt Q8NE63); details: Compound concentration 1000.0 nM
[36] = target: Platelet-derived growth factor receptor alpha (Homo sapiens) (UniProt P16234); details: Compound concentration 1000.0 nM
[37] = target: Mitogen-activated protein kinase kinase kinase kinase 4 (Homo sapiens) (UniProt O95819); details: Compound concentration 1000.0 nM
[38] = tested on: Tyrosine-protein kinase ABL1 (Homo sapiens), P00519 [F317L]; details: Compound concentration 1000.0 nM; remark: listed apart in the source
[39] = target: Vascular endothelial growth factor receptor 1 (Homo sapiens) (UniProt P17948); details: Compound concentration 1000.0 nM
[40] = target: Casein kinase I isoform epsilon (Homo sapiens) (UniProt P49674); details: Compound concentration 1000.0 nM
[41] = target: Phosphorylase b kinase regulatory subunit alpha, liver isoform (Homo sapiens) (UniProt P46019); details: Compound concentration 1000.0 nM
[42] = target: Inhibitor of nuclear factor kappa-B kinase subunit beta (Homo sapiens) (UniProt O14920); details: Compound concentration 1000.0 nM
[43] = target: Tyrosine-protein kinase receptor Tie-1 (Homo sapiens) (UniProt P35590); details: Compound concentration 1000.0 nM

Chain of Tyrosine-protein kinase ABL1 (Homo sapiens), P00519 [F317L] (P00519 whole entry F317L): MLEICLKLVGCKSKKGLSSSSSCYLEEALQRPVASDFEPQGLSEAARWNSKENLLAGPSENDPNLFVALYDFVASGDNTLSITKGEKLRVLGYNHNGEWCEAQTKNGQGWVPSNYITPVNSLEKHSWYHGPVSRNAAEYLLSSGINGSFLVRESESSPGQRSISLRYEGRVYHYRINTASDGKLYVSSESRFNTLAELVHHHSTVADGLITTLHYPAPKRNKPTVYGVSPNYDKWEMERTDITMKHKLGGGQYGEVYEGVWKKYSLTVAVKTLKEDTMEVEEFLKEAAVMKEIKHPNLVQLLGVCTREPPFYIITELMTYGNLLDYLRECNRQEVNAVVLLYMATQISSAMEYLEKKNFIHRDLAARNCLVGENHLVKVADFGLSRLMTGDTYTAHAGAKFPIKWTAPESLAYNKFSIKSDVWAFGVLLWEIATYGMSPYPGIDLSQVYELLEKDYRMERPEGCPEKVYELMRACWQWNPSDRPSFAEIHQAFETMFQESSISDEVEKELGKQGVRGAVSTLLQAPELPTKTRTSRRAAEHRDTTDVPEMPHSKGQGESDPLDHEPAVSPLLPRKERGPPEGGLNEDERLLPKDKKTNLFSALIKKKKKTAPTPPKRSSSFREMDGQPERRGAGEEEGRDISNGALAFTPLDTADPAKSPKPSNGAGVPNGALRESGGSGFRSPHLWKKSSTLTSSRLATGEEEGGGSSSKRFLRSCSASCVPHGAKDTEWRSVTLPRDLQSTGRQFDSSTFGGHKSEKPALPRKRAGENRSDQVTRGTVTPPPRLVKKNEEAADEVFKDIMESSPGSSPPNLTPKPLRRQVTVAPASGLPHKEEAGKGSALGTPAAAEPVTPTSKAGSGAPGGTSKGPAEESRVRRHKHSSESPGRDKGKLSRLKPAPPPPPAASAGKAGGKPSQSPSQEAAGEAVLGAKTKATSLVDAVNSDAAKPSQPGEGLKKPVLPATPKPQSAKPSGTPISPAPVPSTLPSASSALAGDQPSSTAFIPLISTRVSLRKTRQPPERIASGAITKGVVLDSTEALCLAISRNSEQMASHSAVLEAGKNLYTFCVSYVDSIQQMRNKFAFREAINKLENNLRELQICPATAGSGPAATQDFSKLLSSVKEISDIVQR
Chain of Homeodomain-interacting protein kinase 4 (Homo sapiens) (Q8NE63 whole entry): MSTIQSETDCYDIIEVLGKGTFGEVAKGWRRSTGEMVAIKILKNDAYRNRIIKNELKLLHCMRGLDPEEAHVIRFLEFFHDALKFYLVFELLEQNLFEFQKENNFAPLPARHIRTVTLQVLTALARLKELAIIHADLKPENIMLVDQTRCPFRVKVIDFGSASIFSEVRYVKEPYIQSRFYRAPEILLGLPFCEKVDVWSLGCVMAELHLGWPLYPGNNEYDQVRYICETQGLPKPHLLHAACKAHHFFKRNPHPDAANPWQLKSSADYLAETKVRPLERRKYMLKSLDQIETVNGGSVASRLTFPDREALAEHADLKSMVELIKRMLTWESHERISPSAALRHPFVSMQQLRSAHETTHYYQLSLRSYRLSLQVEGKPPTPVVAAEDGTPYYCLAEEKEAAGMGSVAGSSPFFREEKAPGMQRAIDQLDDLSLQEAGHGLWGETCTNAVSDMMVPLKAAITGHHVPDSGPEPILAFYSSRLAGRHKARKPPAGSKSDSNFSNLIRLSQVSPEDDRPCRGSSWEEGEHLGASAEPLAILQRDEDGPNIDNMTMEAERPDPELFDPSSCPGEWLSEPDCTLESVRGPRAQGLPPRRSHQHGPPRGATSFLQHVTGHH
Chain of Death-associated protein kinase 3 (Homo sapiens) (O43293 whole entry, looked up): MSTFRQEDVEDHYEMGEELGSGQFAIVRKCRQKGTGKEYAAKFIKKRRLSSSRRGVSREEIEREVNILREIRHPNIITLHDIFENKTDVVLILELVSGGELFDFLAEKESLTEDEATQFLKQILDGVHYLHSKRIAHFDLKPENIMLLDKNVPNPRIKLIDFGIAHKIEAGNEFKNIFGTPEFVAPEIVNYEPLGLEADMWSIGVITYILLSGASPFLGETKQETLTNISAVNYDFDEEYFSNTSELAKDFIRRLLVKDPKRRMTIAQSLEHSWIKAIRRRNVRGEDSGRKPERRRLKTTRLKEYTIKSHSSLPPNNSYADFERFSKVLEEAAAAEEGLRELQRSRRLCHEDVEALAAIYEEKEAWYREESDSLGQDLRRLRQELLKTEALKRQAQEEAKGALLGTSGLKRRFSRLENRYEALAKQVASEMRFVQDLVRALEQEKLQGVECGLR
Chain of Cyclin-dependent kinase-like 1 (Homo sapiens) (Q00532 whole entry): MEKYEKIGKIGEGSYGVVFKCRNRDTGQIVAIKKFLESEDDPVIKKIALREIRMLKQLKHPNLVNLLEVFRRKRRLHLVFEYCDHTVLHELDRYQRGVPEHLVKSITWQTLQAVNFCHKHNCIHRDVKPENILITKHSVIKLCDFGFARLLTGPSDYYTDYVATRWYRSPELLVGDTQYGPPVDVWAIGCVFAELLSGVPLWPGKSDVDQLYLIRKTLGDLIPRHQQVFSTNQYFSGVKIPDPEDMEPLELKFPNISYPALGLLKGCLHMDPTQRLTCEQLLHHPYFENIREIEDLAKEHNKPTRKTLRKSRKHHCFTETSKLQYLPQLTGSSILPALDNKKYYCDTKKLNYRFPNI
Chain of Serine/threonine-protein kinase PLK1 (Homo sapiens) (P53350 whole entry): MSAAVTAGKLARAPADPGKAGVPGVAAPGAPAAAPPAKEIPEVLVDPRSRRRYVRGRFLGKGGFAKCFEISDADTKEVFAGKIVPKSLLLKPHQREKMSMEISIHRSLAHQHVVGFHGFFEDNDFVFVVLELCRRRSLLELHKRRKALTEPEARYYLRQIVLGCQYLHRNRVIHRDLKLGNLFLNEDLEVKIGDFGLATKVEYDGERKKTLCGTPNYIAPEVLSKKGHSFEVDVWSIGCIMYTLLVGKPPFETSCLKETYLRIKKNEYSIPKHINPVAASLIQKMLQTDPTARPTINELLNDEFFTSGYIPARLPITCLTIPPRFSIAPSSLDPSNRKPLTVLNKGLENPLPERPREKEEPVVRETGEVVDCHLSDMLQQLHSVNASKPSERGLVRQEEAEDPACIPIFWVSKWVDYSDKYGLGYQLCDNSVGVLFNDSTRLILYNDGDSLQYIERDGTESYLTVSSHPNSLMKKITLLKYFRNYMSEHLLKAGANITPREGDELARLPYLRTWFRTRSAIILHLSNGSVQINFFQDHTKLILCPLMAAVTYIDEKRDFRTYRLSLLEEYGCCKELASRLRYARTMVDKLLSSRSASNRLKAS
Chain of Phosphorylase b kinase regulatory subunit alpha, liver isoform (Homo sapiens) (P46019 whole entry, canonical isoform): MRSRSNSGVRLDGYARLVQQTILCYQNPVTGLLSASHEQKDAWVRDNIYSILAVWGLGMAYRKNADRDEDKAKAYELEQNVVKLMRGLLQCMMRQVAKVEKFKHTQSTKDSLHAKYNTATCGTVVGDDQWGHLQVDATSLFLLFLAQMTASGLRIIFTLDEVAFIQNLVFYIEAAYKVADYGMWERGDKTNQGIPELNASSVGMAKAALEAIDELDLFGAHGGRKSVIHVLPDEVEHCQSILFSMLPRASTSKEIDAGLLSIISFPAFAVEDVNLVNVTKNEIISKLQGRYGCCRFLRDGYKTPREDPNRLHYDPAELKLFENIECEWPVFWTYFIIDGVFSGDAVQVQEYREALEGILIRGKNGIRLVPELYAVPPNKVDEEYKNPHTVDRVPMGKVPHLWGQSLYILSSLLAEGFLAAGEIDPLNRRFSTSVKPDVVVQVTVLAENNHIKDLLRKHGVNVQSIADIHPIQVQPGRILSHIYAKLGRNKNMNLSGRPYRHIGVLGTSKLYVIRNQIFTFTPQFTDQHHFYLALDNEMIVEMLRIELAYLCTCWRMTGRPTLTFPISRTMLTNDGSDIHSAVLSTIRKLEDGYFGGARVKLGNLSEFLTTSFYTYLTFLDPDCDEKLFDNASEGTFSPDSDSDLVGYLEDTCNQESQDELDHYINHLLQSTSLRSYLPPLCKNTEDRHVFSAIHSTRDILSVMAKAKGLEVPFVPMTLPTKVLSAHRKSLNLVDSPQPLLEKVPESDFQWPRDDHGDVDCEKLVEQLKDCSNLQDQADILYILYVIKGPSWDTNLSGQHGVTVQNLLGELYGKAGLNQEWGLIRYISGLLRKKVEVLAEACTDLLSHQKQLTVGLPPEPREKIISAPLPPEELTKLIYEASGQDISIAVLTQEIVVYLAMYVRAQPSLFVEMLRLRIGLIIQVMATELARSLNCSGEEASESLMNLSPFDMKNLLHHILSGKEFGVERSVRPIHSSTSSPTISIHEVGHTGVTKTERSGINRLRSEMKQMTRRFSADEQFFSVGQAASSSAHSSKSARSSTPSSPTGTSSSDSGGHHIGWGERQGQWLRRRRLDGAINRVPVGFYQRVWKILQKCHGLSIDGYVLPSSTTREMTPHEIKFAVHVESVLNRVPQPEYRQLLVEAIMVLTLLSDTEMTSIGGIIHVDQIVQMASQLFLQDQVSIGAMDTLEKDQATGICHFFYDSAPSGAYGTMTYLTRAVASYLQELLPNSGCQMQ
Chain of Cyclin-dependent kinase 15 (Homo sapiens) (Q96Q40 whole entry): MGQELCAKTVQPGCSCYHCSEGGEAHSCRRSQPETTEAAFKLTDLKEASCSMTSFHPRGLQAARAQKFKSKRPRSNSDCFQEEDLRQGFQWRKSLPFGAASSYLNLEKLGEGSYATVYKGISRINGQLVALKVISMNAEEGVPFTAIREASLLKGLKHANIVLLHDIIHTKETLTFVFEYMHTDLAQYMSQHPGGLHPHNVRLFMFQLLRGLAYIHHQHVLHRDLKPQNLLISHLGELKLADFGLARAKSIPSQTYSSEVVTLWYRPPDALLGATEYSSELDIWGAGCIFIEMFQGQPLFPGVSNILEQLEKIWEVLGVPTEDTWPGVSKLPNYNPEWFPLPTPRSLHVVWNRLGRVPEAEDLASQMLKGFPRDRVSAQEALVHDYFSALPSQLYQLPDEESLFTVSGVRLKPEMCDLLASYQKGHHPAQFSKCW

Cc1noc([C@H]2C[C@@H](c3ccc(C(F)(F)F)cc3)CN(C(=O)N3CCS(=O)(=O)C3)C2)n1 [BAY-448]
inactive: residual activity [1] 100% | residual activity [2] 100% | inhibition [3] 2.23% | residual activity [4] 72% | residual activity [5] 91% | residual activity [6] 85% | inhibition [7] 37.1% | residual activity [8] 100% | residual activity [9] 100% | residual activity [10] 100% | inhibition [11] -1.18% | residual activity [12] 78% | residual activity [13] 100% | residual activity [14] 98% | residual activity [15] 100% | inhibition [16] -9.27% | residual activity [17] 100% | residual activity [18] 100% | residual activity [19] 81% | residual activity [20] 100% | residual activity [21] 100% | residual activity [22] 100% | residual activity [23] 100% | residual activity [24] 100% | residual activity [25] 100% | residual activity [26] 100% | residual activity [27] 100% | residual activity [28] 100% | residual activity [29] 100% | residual activity [30] 98% | residual activity [31] 100% | residual activity [32] 76% | residual activity [33] 91% | residual activity [34] 100% | residual activity [35] 100% | residual activity [36] 100% | residual activity [37] 100% | residual activity [38] 100% | residual activity [39] 100% | residual activity [40] 100% | residual activity [41] 100% | residual activity [42] 80% | residual activity [43] 89%

O=C(N1CCS(=O)(=O)CC1)N1C[C@H](c2ccc(OC(F)(F)F)cc2)C[C@H](c2nc(C3CC3)no2)C1 [BAY-386]
inactive: residual activity [1] 100% | residual activity [2] 100% | inhibition [3] -4.38% | residual activity [4] 97% | residual activity [5] 100% | residual activity [6] 92% | inhibition [7] -4.94% | residual activity [8] 100% | residual activity [9] 100% | residual activity [10] 100% | inhibition [11] 14.2% | residual activity [12] 68% | residual activity [13] 96% | residual activity [14] 100% | residual activity [15] 100% | inhibition [16] 5.17% | residual activity [17] 100% | residual activity [18] 100% | residual activity [19] 91% | residual activity [20] 100% | residual activity [21] 100% | residual activity [22] 100% | residual activity [23] 100% | residual activity [24] 86% | residual activity [25] 100% | residual activity [26] 98% | residual activity [27] 75% | residual activity [28] 83% | residual activity [29] 100% | residual activity [30] 100% | residual activity [31] 98% | residual activity [32] 99% | residual activity [33] 90% | residual activity [34] 100% | residual activity [35] 85% | residual activity [36] 100% | residual activity [37] 100% | residual activity [38] 89% | residual activity [39] 100% | residual activity [40] 100% | residual activity [41] 100% | residual activity [42] 77% | residual activity [43] 100%
